Format in all cases: physicochemical
The nature of series [1]: Lipid nanoparticle size and polydispersity by dynamic light scattering. The note with it: LNP of lipid/DSPC/cholesterol/PEG-lipid 50:10:38.5:1.5 encapsulating hEPO mRNA. The method in brief:
(§1)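 LNPs made from ionizable lipid/DSPC/cholesterol/PEG-lipid (50:10:38.5:1.5) and mRNA in citrate pH 4 by microfluidic mixing, lipid:mRNA about 10:1–30:1 w/w, then dialysed into DPBS and filtered. Size and PDI measured by DLS in backscatter mode; encapsulation efficiency measured by RiboGreen assay.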

Series [2] in a line: Apparent pKa of LNP formulations, TNS fluorescence assay. The conditions noted are these: LNP cationic lipid/DSPC/cholesterol/DMG-PEG 50/10/38.5/1.5 mol %. The method, boiled down:
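LNPs (cationic lipid/DSPC/cholesterol/DMG-PEG 50/10/38.5/1.5 mol %) diluted to 0.1 mg/mL total lipid in citrate/phosphate/borate/NaCl buffers spanning pH 3–9 with TNS. Fluorescence (ex 325, em 435 nm) read at room temperature; pKa taken as the pH at half-maximal intensity from sigmoidal fit.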

Series [3] is described as follows: Encapsulation efficiency of lipid nanoparticles, Quant-it Ribogreen RNA assay. The note with it: LNP of lipid/DSPC/cholesterol/PEG-lipid 50:10:38.5:1.5 encapsulating hEPO mRNA. The method, boiled down:
as §1

Each structure is given as a SMILES string.

Regarding `CCCCCCCCC(CCCCCCCC)COC(=O)CCCCCN(CCO)CCN(CCCCCOC(=O)CCCCC=C(CCCCCC)CCCCCC)C1CCC1` [Compound 87], in series [1], the polydispersity was 0.055 and the “size (nm)” value turned out to be 70.07 nm. Besides, the “Apparent Pka” value in series [2] amounted to 6.476. The “Encapsulation Efficiency” value in series [3] is reported as 93.34%.

For `CCCCCCCCC(CCCCCC)CNC(=O)CCCCCCCN(CCO)CCN(CCCCC(COC(=O)CCCCCCC)COC(=O)CCCCCCC)C1CCCCC1` (stereo not shown) [Compound 235], in series [1], the polydispersity amounted to 0.093 and the “size (nm)” value is recorded as 67.92 nm. For the same molecule, in series [2], the “Apparent Pka” value was found to be 6.545. Moreover, the “Encapsulation Efficiency” value in series [3] is on record as 88.53%.

Take `CCCCCCCCC(CCCCCCCC)COC(=O)CCCCCN(CCO)CCN(CCCCC)CCCCCC(=O)OCC(CCCCCCCC)CCCCCCCC` [Compound 124]: in series [1], the polydispersity was determined as 0.111 and the “size (nm)” value came to 59.55 nm. The “Apparent Pka” value in series [2] was 5.997. Moreover, the “Encapsulation Efficiency” value in series [3] stood at 94.60%.

With `CCCCCCCCC(CCCCCC)COC(=O)CCCCCN(CCO)CCN(CCCCC(COC(=O)CCCCCCC)COC(=O)CCCCCCC)C1CCCCCCC1` (stereo not shown) [Compound 144], in series [1], the polydispersity is recorded as 0.099 and the “size (nm)” value is 68.28 nm. In series [2], the “Apparent Pka” value worked out at 6.182. Further, in series [3], the “Encapsulation Efficiency” value was 84.58%.

Take `CCCCCCCCC(CCCCCCCC)CNC(=O)CCCCCN(CCN(CCCO)CCCCCC(=O)OCC(CCCCCCCC)CCCCCCCC)C1CCC1` [Compound 76]: in series [1], the polydispersity was 0.036 and the “size (nm)” value was 84.12 nm. Besides, the “Apparent Pka” value in series [2] turned out to be 6.322. Also, the “Encapsulation Efficiency” value in series [3] turned out to be 92.30%.

On to `CCCCCCCCC(CCCCCCCC)COC(=O)CCCCCN(CCO)CCN(CCCCCC(=O)OCC(CCCCCCCC)CCCCCCCC)C1CCOCC1` [Compound 28], for which, in series [1], the polydispersity is on record as 0.045 and the “size (nm)” value amounted to 62.35 nm. Besides, in series [2], the “Apparent Pka” value worked out at 6.686. For the same molecule, in series [3], the “Encapsulation Efficiency” value turned out to be 92.4%.

Regarding `CCCCCCCCC(CCCCCC)COC(=O)CCCCCN(CCO)CCN(CCCCCC(=O)OCC(CCCCCC)CCCCCCCC)C1CCC1` (stereo not shown) [Compound 7], in series [1], the polydispersity was 0.06 and the “size (nm)” value is 72.78 nm. Moreover, the “Apparent Pka” value in series [2] is 6.427. In series [3], the “Encapsulation Efficiency” value is listed as 96.5%.

Consider `CCCCCCCCC(CCCCCCCC)CC(=O)NCCCCCN(CCN(CCO)CCCCCOC(=O)CC(CCCCCCCC)CCCCCCCC)C1CCCC1` [Compound 72], for which, in series [1], the polydispersity amounted to 0.033 and the “size (nm)” value was 74.18 nm. For the same molecule, in series [2], the “Apparent Pka” value is on record as 6.633. The “Encapsulation Efficiency” value in series [3] was 92.60%.

With `CCCCCCCCC(CCCCCC)CNC(=O)CCCCN(CCO)CCN(CCCCC(COC(=O)CCCCCCC)COC(=O)CCCCCCC)C1CCCCCCC1` (stereo not shown) [Compound 214], in series [1], the polydispersity worked out at 0.058 and the “size (nm)” value turned out to be 76.29 nm. In series [2], the “Apparent Pka” value is 6.789. Further, in series [3], the “Encapsulation Efficiency” value came out at 89.14%.

`CCCCCCCCC(CCCCCC)CNC(=O)CCCCCN(CCOCCO)CCN(CCCCC(COC(=O)CCCCCCC)COC(=O)CCCCCCC)C1CCCCC1` (stereo not shown) [Compound 206]: in series [1], the polydispersity came to 0.07 and the “size (nm)” value is reported as 112.7 nm. In addition, the “Apparent Pka” value in series [2] was 6.81. Also, in series [3], the “Encapsulation Efficiency” value came out at 80.88%.

As for `CCCCCCCCC(CCCCCCCC)COC(=O)CCOCCN(CC=C(C)C)CCN(CCO)CCOCCC(=O)OCC(CCCCCCCC)CCCCCCCC` [Compound 120], in series [1], the polydispersity is recorded as 0.043 and the “size (nm)” value is recorded as 75.42 nm. For the same molecule, the “Apparent Pka” value in series [2] came out at 6.546. The “Encapsulation Efficiency” value in series [3] is 94.33%.

Consider `CCCCCCCCC(CCCCCCCC)COC(=O)CCCCCN(C)CCN(CCCCCC(=O)OCC(CCCCCCCC)CCCCCCCC)C1CCC(O)CC1` (stereo not shown) [Compound 51], for which, in series [1], the polydispersity stood at 0.028 and the “size (nm)” value is on record as 83.92 nm. In addition, in series [2], the “Apparent Pka” value turned out to be 6.579. In addition, in series [3], the “Encapsulation Efficiency” value stood at 97.0%.

In the case of `CCCCCCCCC(CCCCCCCC)COC(=O)CCCCCN(CC=C(C)C)CCN(CCCCCC(=O)OCC(CCCCCCCC)CCCCCCCC)C1CCC(O)CC1` (stereo not shown) [Compound 126], in series [1], the polydispersity is 0.047 and the “size (nm)” value stood at 61.57 nm. Also, the “Apparent Pka” value in series [2] stood at 6.212. Besides, the “Encapsulation Efficiency” value in series [3] came to 92.26%.

In the case of `CCCCCCCCC(CCCCCCCC)COC(=O)CCCCCN1CCC(N(CCO)CCCCCC(=O)OCC(CCCCCCCC)CCCCCCCC)CC1` [Compound 170], in series [1], the polydispersity is given as 0.09 and the “size (nm)” value was determined as 74.62 nm. The “Apparent Pka” value in series [2] is recorded as 6.269. The “Encapsulation Efficiency” value in series [3] is given as 96.0%.

For `CCCCCCCCC(CCCCCC)COC(=O)CCCCCN(CCO)CCN(CCCCC(COC(=O)CCCCCCC)COC(=O)CCCCCCC)C1CC1` (stereo not shown) [Compound 154], in series [1], the polydispersity worked out at 0.101 and the “size (nm)” value came out at 56.95 nm. Also, the “Apparent Pka” value in series [2] is on record as 6.061. In addition, the “Encapsulation Efficiency” value in series [3] was determined as 87.11%.

Regarding `CCCCCCCC(=O)OCC(CCCCN(CCO)CCCCN(CCCCC(COC(=O)CCCCCCC)COC(=O)CCCCCCC)C1CCCC1)COC(=O)CCCCCCC` [Compound 181], in series [1], the polydispersity was 0.154 and the “size (nm)” value came out at 119.3 nm. Further, the “Apparent Pka” value in series [2] was 6.995. In addition, the “Encapsulation Efficiency” value in series [3] is listed as 94.10%.

In the case of `CCCCCCCCC(CCCCCCCC)CC(=O)NCCCCCN(CCN(CCO)CCCCCOC(=O)CC(CCCCCCCC)CCCCCCCC)C1CCCCC1` [Compound 73], in series [1], the polydispersity worked out at 0.049 and the “size (nm)” value is 88.45 nm. Further, the “Apparent Pka” value in series [2] came to 6.597. The “Encapsulation Efficiency” value in series [3] was 92.38%.

Consider `CCCCCCCCC(CCCCCCCC)COC(=O)CCCCCN(CCO)CCN(CCCCCOC(=O)CCCCCC(CCCCCC)CCCCCC)C1CCC1` [Compound 83], for which, in series [1], the polydispersity stood at 0.032 and the “size (nm)” value came out at 87.87 nm. Further, the “Apparent Pka” value in series [2] is given as 6.233. Besides, the “Encapsulation Efficiency” value in series [3] came out at 92.51%.

For the molecule `CCCCCCCCC(CCCCCC)CNC(=O)CCCCCN(CCCCN(CCO)CCCCC(COC(=O)CCCCCCC)COC(=O)CCCCCCC)C1CCCCCC1` (stereo not shown) [Compound 198], in series [1], the polydispersity is 0.069 and the “size (nm)” value was found to be 96.11 nm. In addition, the “Apparent Pka” value in series [2] was determined as 6.984. The “Encapsulation Efficiency” value in series [3] was determined as 88.41%.

On to `CCCCCCCC(=O)OCC(CCCCN(CCO)CCCCN(CCCCC(COC(=O)CCCCCCC)COC(=O)CCCCCCC)C1CCCCC1)COC(=O)CCCCCCC` [Compound 185], for which, in series [1], the polydispersity turned out to be 0.111 and the “size (nm)” value was determined as 75.27 nm. Further, the “Apparent Pka” value in series [2] is 6.593. In addition, in series [3], the “Encapsulation Efficiency” value is 90.39%.

As for `CCCCCCCCC(CCCCCCCC)COC(=O)OCCCCCN(CCO)CCN(CCCCCNC(=O)CC(CCCCCC)CCCCCCCC)C1CCCCCC1` (stereo not shown) [Compound 153], in series [1], the polydispersity was found to be 0.048 and the “size (nm)” value stood at 73.95 nm. Besides, in series [2], the “Apparent Pka” value is 6.437. In addition, in series [3], the “Encapsulation Efficiency” value is on record as 93.09%.

As to `CCCCCCCCC(CCCCCCCC)CNC(=O)CCCCCN(CCO)CCN(CCCCCC(=O)OCC(CCCCCCCC)CCCCCCCC)C1CCCCCC1` [Compound 17], in series [1], the polydispersity came out at 0.033 and the “size (nm)” value was 58.8 nm. In addition, the “Apparent Pka” value in series [2] was determined as 6.671. Further, the “Encapsulation Efficiency” value in series [3] is given as 98.9%.

Regarding `CCCCCCCCC(CCCCCCCC)COC(=O)CCCCCN(CCO)CCN(CCCCCC(=O)OCC(CCCCCCCC)CCCCCCCC)C1CCCCC1C` (stereo not shown) [Compound 34], in series [1], the polydispersity is 0.05 and the “size (nm)” value stood at 55.14 nm. Further, the “Apparent Pka” value in series [2] is 5.485. For the same molecule, in series [3], the “Encapsulation Efficiency” value is given as 87.2%.

On to `CCCCCCCCC(CCCCCC)CNC(=O)CCCCCN(CCOCCO)CCN(CCCCC(COC(=O)CCCCCCC)COC(=O)CCCCCCC)C1CCCC1` (stereo not shown) [Compound 205], for which, in series [1], the polydispersity is 0.023 and the “size (nm)” value was 104.3 nm. The “Apparent Pka” value in series [2] is 6.917. In addition, in series [3], the “Encapsulation Efficiency” value is listed as 81.79%.

As for `CCCCCCCCCCCOC(=O)CCCCCN(CCN(CCO)CCCCC(COC(=O)CCCCCCC)COC(=O)CCCCCCC)C1CCCC1` [Compound 183], in series [1], the polydispersity was determined as 0.032 and the “size (nm)” value is given as 103.2 nm. Also, in series [2], the “Apparent Pka” value is listed as 6.858. For the same molecule, the “Encapsulation Efficiency” value in series [3] turned out to be 92.26%.

For the molecule `CCCCCCCCC(CCCCCCCC)CC(=O)OCCCCCN(CCO)CCN(CCCCCOC(=O)CC(CCCCCCCC)CCCCCCCC)C1CCC1` [Compound 62], in series [1], the polydispersity was found to be 0.034 and the “size (nm)” value is 68.28 nm. Further, the “Apparent Pka” value in series [2] came out at 6.21. Also, the “Encapsulation Efficiency” value in series [3] is 92.0%.

In the case of `CCCCCCCCC(CCCCCC)CNC(=O)CCCCCCCN(CCO)CCN(CCCCC(COC(=O)CCCCCCC)COC(=O)CCCCCCC)C1CCCCCCC1` (stereo not shown) [Compound 215], in series [1], the polydispersity is 0.033 and the “size (nm)” value stood at 67.78 nm. Also, the “Apparent Pka” value in series [2] came to 6.542. Further, the “Encapsulation Efficiency” value in series [3] amounted to 90.80%.

With `CCCCCCCCCCCNC(=O)CCCCCN(CCN(CCO)CCCCC(COC(=O)CCCCCCC)COC(=O)CCCCCCC)C1CCC1` [Compound 188], in series [1], the polydispersity is reported as 0.085 and the “size (nm)” value turned out to be 111.8 nm. Also, in series [2], the “Apparent Pka” value is recorded as 6.738. Besides, in series [3], the “Encapsulation Efficiency” value is 86.80%.

The values are drawn from patent US20230348362A1, “LIPID COMPOUNDS AND LIPID NANOPARTICLE COMPOSITIONS” (Suzhou Abogen Biosciences Co., Ltd., priority 2021, published 2023).
